This note sets out measurements from patent US20080171716A1, “NUCLEIC ACID MODULATION OF TOLL-LIKE RECEPTOR-MEDIATED IMMUNE STIMULATION” (Protiva Biotherapeutics, Inc., priority 2006, published 2008).

This data set has as its target T1, TLR7 (Mus musculus, UniProt P58681).
T1 sequence (P58681 27-1050): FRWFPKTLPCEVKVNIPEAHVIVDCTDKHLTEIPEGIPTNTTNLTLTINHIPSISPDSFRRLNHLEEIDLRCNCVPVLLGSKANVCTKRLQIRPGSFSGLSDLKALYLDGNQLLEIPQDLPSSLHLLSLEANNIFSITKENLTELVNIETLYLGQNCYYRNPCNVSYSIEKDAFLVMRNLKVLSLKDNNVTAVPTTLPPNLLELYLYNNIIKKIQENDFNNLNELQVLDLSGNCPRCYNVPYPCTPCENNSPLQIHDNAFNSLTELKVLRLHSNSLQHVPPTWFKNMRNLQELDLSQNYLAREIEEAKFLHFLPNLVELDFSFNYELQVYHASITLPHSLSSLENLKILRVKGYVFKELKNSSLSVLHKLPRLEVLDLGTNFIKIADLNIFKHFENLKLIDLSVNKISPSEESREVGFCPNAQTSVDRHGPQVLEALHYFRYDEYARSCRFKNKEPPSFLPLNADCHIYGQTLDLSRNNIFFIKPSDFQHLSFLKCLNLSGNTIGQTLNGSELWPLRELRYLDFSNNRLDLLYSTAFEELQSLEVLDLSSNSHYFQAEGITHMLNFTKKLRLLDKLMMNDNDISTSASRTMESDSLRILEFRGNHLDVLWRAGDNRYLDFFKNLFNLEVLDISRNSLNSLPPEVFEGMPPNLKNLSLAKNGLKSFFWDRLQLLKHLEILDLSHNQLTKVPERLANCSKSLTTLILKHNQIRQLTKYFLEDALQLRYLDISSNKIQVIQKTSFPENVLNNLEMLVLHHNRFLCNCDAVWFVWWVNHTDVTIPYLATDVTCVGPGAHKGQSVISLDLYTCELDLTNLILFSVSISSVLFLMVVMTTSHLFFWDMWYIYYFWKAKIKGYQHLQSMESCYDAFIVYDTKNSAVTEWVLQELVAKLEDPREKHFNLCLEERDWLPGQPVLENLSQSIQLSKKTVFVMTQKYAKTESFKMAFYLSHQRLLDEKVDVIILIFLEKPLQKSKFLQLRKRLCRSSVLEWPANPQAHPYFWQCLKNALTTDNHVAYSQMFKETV
Nature of the data set: In vivo inhibition of loxoribine-mediated cytokine induction in mice. Details: from tissue; host or cells: whole animal: female Balb/C mice, plasma cytokines; species or system Balb/C mice. The procedure:
Cytokine ELISA. All cytokines were quantified using sandwich ELISA kits according to the manufacturer's instructions. These were mouse and human IFN-α (PBL Biomedical; Piscataway, N.J.) and IL-6 (eBioscience; San Diego, Calif.).
In Vivo Cytokine Induction. Animal studies were performed at Protiva Biotherapeutics in accordance with Canadian Council on Animal Care guidelines and following protocol approval by the local Animal Care and Use Committee. Female Balb/C mice were subjected to a two-week quarantine and acclimation period prior to use at six to eight-weeks of age. RNA formulations were administered by standard injection in the lateral tail vein in 0.2 ml PBS. Six hours after injection, blood was collected by cardiac puncture and processed as plasma for cytokine analysis. In experiments studying inhibition of cytokine induction by loxoribine, formulated RNA (100 μg) was administered IV 2 h prior to IV administration of 1 mg loxoribine in PBS. Blood was collected by cardiac puncture 2 h after administration of loxoribine and processed as plasma for cytokine analysis.

Setting [1] is: 100 μg formulated RNA IV 2 h prior to 1 mg Lox IV, plasma 2 h after Lox.

Turning to “polyUmod21: 2′OMe-uridine homopolymer of 21 nucleotides in length (UUUUUUUUUUUUUUUUUUUUU; all 2'-O-methyl, backbone not given here)”, under setting [1], the “reduction of plasma IFN-α compared to PBS pre-treatment” value was 79%+/−5%, the “reduction of plasma IFN-α compared to mice treated with GFP-S ssRNA” value is listed as 92%+/−2%, the “reduction of plasma IL-6 compared to PBS pre-treatment” value turned out to be 72%+/−8% and the “reduction of plasma IL-6 compared to mice treated with GFP-S ssRNA” value came out at 96%+/−1%. The “loxoribine-mediated cytokine induction relative to GFP-S ssRNA and PBS treated mice” value (pre-treatment 2 h prior to 1 mg Lox) was “significantly reduced”.
